Experiments:
Bcl-xL = test: IHC of Bcl-xL expression in pancreatic tumor xenografts; assay type: in vivo, athymic nude mice; details: intra-tumoral at day 20
Procedure: (§1) FIG. 15. The effect of MNP-curcumin formulation on the expression of Bcl-xL and MCL-1 oncogenes in pancreatic tumor xenografts. Pancreatic tumor xenografts were generated in athymic nude mice by subcutaneous (sc) injection of HPAFII human pancreatic cancer cells. […] The presence of MNPs (iron) in tumors was determined by Prussian Blue staining. Original Magnifications 200×.
(§2) We then tested to effect of MNP-curcumin formulation on the expression of Bcl-xL and MCL-1 oncogenes in pancreatic tumor xenografts. Pancreatic tumor xenografts were generated in athymic nude mice by subcutaneous (sc) injection of HPAFII human pancreatic cancer cells.

[1] = tested on: PC3 prostate cancer cells; test: In vitro cytotoxicity (MTT assay), PC3; assay type: cell-based; details: 48 h; PC3, 2 days; read-out: IC50 (50% cell growth inhibitory concentration)
Procedure: (§3) In vitro cytotoxicity was assessed using a standard 3-(4,5-dimethylthiazol-2-yl)-2,5-diphenyltetrazolium bromide (MTT) based colorimetric assay (CellTiter 96 AQeous, Promega, Madison, Wis., USA). Ovarian (A2780CP), breast (MDA-MB-231), and prostate (PC3) cancer cells were used for this experiment. Cells (5000 cells/well in 100 μl media) were cultured in RPMI-1640 or DMEM medium containing 10% FBS and 1% penicillin-streptomycin in 96-well plates and allowed to attach overnight. The media was replaced with fresh media containing different concentrations (2.5-40 μM) of CUR and CUR containing MNPs (F127250-CUR). Equivalent amounts of DMSO or F127250 MNPs without drug in PBS were used as control. These plates were incubated at 37° C. for 2 days. After day 2, the media was replaced with 100 μl fresh media and the MTT reagent (25 μl/well) was added to each well and plates were incubated for 3 hrs at 37° C. in an incubator. The color intensity was measured at 492 nm using a microplate reader (BioMate 3 UV-Vis Spectrophotometer, Thermo Electron Corporation, Hudson, N.H., USA). The anti-proliferation potential of CUR and F127250-CUR treatments was calculated as a percentage of cell growth with respect to the DMSO and F127250 formulation in PBS controls. Standard deviations were obtained from 6 replicates.

PC3 cancer cells = test: Ultrastructural changes in cancer cells by TEM; assay type: cell-based; details: 20 μM
Procedure: The uptake (internalization) pattern of nanoparticles was monitored by transmission electron microscopy (TEM) to further validate the cellular uptake capability of magnetic nanoparticles in cancer cells which was visually observed. For this experiment, aforementioned cells (1×10^7 cells per 150 mm plate) were incubated with 1 mg of particles in 20 ml media for 6 hrs. The treated cells were centrifuged and fixed with standard formaldehyde (4%)-glutaraldehyde (1%) fixative solution followed by OsO4 fixative solution. Next, cells were dehydrated in a graded series of acetone and embedded in Spurr resin. These cell-containing resin blocks were sectioned using an ultramicrotome and ultrathin sections (70-90 nm thickness) were transferred onto TEM grid (grid size: 97 μm) (Ted Pella Inc., Redding, Calif., USA). The grids were processed with uranyl acetate and lead acetate solutions to visualize cellular ultra structures.
The variation of ultrastructural changes in the cancer cells upon exposure to control (DMSO and F127250 formulation), 20 μM CUR or 20 μM F127250-CUR were observed by transmission electron microscopy (TEM) analysis.

MCL-1 = test: IHC of MCL-1 expression in pancreatic tumor xenografts; assay type: in vivo, athymic nude mice; details: intra-tumoral at day 20
Procedure: as §1, §2

[2] = tested on: MDA-MB-231 breast cancer cells; test: In vitro cytotoxicity (MTT assay), MDA-MB-231; assay type: cell-based; details: Homo sapiens, 48 h; MDA-MB-231, 2 days; read-out: IC50 (50% cell growth inhibitory concentration)
Procedure: as §3

PARP = test: Western blot for PARP cleavage in PC3 cells; assay type: cell-based; details: 20 μM
Procedure: The immunoblot analyses were performed to determine anti-cancer effects of our formulation at the molecular level. For these experiments, cancer cells were collected after 2 days of treatment with 10 μM and 20 μM CUR and 10 μM and 20 μM of F127250-CUR and processed for protein extraction and Western blotting using standard procedures. The cell lysates were separated by gel electrophoresis on polyacrylamide gels containing sodium dodecyl sulfate and then transferred to PVDF membranes. The membranes were blocked with Tris-buffered saline (TBS) containing 5% (w/v) skimmed milk. After washing thrice with Tween 20, the membranes were incubated overnight with primary antibody specific to Bcl-xL or PARP at 4° C. After washing, the membranes were incubated for 1 hr with secondary antibody (Promega, Madison Wis., USA). Protein bands were visualized using the Lumi-Light Detection Kit (Roche, Nutley, N.J., USA) and detected with a BioRad Gel Doc (BioRad, Hercules, Calif., USA).

[3] = tested on: A2780CP ovarian cancer cells; test: In vitro cytotoxicity (MTT assay), A2780CP; assay type: cell-based; details: A2780C/P, 48 h, 2 days, read-out: IC50 (50% cell growth inhibitory concentration)
Procedure: as §3

In the case of `COc1cc(/C=C/C(=O)CC(=O)/C=C/c2ccc(O)c(OC)c2)ccc1O` [curcumin, (E,E)-1,7-bis(4-Hydroxy-3-methoxyphenyl)-1,6-heptadiene-3,5-dione], the “expression of Bcl-xL oncogene in tumor xenografts” value (Bcl-xL) is reported as “effectively inhibited the expression”, the IC50 [1] is reported as 10.6 µM and the “ultrastructural changes (vacuole formation)” value (PC3 cancer cells) is reported as “formation of endosomal-lysosomal-vacules”. For the same molecule, the “expression of MCL-1 oncogene in tumor xenografts” value (MCL-1) was “effectively inhibited the expression”, the IC50 [2] was 18.8 µM and the PARP cleavage (PARP) was “considerable cleavage”. For the same molecule, the IC50 [3] was 12.6 µM.

— patent publication US9642925B2, “Magnetic nanoparticle formulations, methods for making such formulations, and methods for their use” (Sanford Research/USD, priority 2010, dated 2017)
